This passage reports IC50 results from patent US8058269B2, “Oxindole derivatives” (Hoffman-La Roche Inc., priority 2006, dated 2011).

interaction between p53 and MDM2 proteins, sequence (Q00987 whole entry): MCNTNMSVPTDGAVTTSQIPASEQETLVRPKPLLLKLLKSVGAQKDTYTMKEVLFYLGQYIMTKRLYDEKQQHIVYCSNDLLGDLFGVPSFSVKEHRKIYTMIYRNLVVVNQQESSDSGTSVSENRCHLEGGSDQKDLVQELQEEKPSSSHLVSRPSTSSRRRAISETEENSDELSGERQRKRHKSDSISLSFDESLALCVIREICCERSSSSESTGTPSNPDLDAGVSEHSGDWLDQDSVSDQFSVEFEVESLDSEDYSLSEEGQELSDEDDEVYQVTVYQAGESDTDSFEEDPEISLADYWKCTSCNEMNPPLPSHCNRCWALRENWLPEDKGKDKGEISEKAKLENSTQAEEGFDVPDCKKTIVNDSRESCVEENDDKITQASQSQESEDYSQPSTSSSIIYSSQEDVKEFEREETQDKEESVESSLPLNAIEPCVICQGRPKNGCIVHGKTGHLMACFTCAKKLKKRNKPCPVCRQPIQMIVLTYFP

The experiment has as its target interaction between p53 and MDM2 proteins (Homo sapiens, UniProt Q00987). As to the kind of experiment: HTRF assay of inhibition of the p53-MDM2 interaction (GST-MDM2 / biotinylated p53 peptide). It is filed as binding. The note with it: recombinant GST-tagged MDM2 and biotinylated p53 peptide, 0.02% BSA. How it is done: In a […], the ability of the compounds to inhibit the interaction between p53 and MDM2 proteins was measured. The ability of the compounds to inhibit the interaction between p53 and MDM2 proteins was measured by an HTRF (homogeneous time-resolved fluorescence) assay in which recombinant GST-tagged MDM2 binds to a peptide that resembles the MDM2-interacting region of p53 (Lane et al.). Binding of GST-MDM2 protein and p53-peptide (biotinylated on its N-terminal end) is registered by the FRET (fluorescence resonance energy transfer) between Europium (Eu)-labeled anti-GST antibody and streptavidin-conjugated Allophycocyanin (APC). […]
Regarding `O=C1Nc2cc(Cl)ccc2C1(Cc1cccc(Cl)c1)Nc1ccc(Br)cc1F` (racemic) [Example 11, rac-3-(4-bromo-2-fluoro-phenylamino)-6-chloro-3-(3-chloro-benzyl)-1,3-dihydro-indol-2-one], the IC50 (commonly the concentration that gives 50% inhibition) was found to be 3.73 nM.
Then `O=C1Nc2cc(Cl)ccc2C1(Cc1cccc(Cl)c1)Nc1cccc(OC(F)F)c1` (racemic) [Example 19, rac-6-chloro-3-(3-chloro-benzyl)-3-(3-difluoromethoxy-phenylamino)-1,3-dihydro-indol-2-one], with 2.56 nM; and `O=C1Nc2cc(Cl)ccc2C1(Cc1cccc(Cl)c1)NC1CCC1` (racemic) [Example 49, rac-6-chloro-3-(3-chloro-benzyl)-3-cyclobutylamino-1,3-dihydro-indol-2-one], with 2.54 nM.
For the compound `O=C1Nc2cc(Cl)ccc2C1(Cc1cccc(Cl)c1)N1CCCC(O)C1` (racemic) [Example 62, rac-6-chloro-3-(3-chloro-benzyl)-3-(3-hydroxy-piperidin-1-yl)-1,3-dihydro-indol-2-one], the IC50 came out at 3.68 nM.
